As a reminder, the GI50 is the concentration that inhibits growth by half.

15 molecules from ChEMBL document CHEMBL5143534, “Synthesis and biological evaluation of BU-4664L derivatives as potential anticancer agents” (2022) can be followed below.

One experiment has as its system PC-3. Description: Antiproliferative activity against human PC-3 cells assessed as cell growth inhibition by MTT assay. In kind it is functional.
For the next experiment, the system named is NCI-H460. Put plainly: Antiproliferative activity against human NCI-H460 cells assessed as cell growth inhibition by MTT assay. The class given is functional. A general note: Tetrazolium dyes change colour on reduction, which living cells bring about.

As for `COc1ccc2c(c1)N(C/C=C(\C)CCC=C(C)C)C(=O)c1ccccc1N2`, the GI50 in the experiment on PC-3 was 10.8 µM; in the experiment with NCI-H460, 43.9 µM.

On to `COc1ccc2c(c1)N(Cc1cc(OC)c(OC)c(OC)c1)C(=O)c1ccccc1N2`, for which the GI50 in the experiment with PC-3 is 10.2 µM; in the experiment on NCI-H460, 34.8 µM.

In the case of `COc1ccc2c(c1)N(Cc1ccc(OC)c(OC)c1)C(=O)c1ccccc1N2`, the GI50 was 12.5 µM with PC-3 and 44.4 µM in the experiment with NCI-H460.

In the case of `CC(C)=CCC/C(C)=C/CN1C(=O)c2ccccc2Nc2cnc(Cl)nc21`, the GI50 with PC-3 is 7.29 µM; in the experiment with NCI-H460 it was 24.3 µM. For `COc1ccc(CN2C(=O)c3ccccc3Nc3cnc(Cl)nc32)cc1OC`, in the experiment with PC-3, the GI50 was determined as 8.31 µM. Take `CC(C)=CCC/C(C)=C/CC/C(C)=C/CN1C(=O)c2cccc(O)c2Nc2c(O)cc(O)cc21` [DIAZEPINOMICIN]: the GI50 is 1.95 µM with PC-3 and 13.6 µM in the experiment with NCI-H460.

With `COc1ccc(CN2C(=O)c3ccccc3Nc3ccc(OC)cc32)cc1`, in the experiment with PC-3, the GI50 is 10.6 µM.

`COc1ccc(CN2C(=O)c3ccccc3Nc3cnc(Cl)nc32)cc1`: in the experiment on PC-3, the GI50 came to 6.69 µM.

As for `CC(C)=CCC/C(C)=C/CC/C(C)=C/CN1C(=O)c2ccccc2Nc2cnc(Cl)nc21`, the GI50 in the experiment with PC-3 amounted to 5.94 µM; in the experiment with NCI-H460, 19.9 µM. Consider `COc1cc(CN2C(=O)c3ccccc3Nc3cnc(Cl)nc32)cc(OC)c1OC`, for which, in the experiment with PC-3, the GI50 turned out to be 8.23 µM. As for `COc1ccc2c(c1)N(CC=C(C)C)C(=O)c1ccccc1N2`, the GI50 with PC-3 was determined as 5.66 µM; with NCI-H460, 25.6 µM.

Turning to `O=C1c2ccccc2Nc2cnc(Cl)nc2N1C/C=C/c1ccccc1`, the 50% growth inhibitory concentration (GI50) in the experiment with PC-3 is 12.5 µM. As for `COc1ccc2c(c1)N(C/C=C/c1ccccc1)C(=O)c1ccccc1N2`, the GI50 stood at 7.37 µM in the experiment with PC-3 and 36.6 µM with NCI-H460. On the same counts, the results for `COc1ccc2c(c1)N(C/C=C(\C)CC/C=C(\C)CCC=C(C)C)C(=O)c1ccccc1N2` are 11 µM and 34.4 µM. Taken in the same sequence, the figures for `CC(C)=CCN1C(=O)c2ccccc2Nc2cnc(Cl)nc21` were 6.12 µM and 38.1 µM.
